Assay results published in article PMC7400623, “Effect of lysine side chain length on histone lysine acetyltransferase catalysis” (Scientific Reports, 2020).

Assays:
MOF (KAT8) = target: T1, MOF (KAT8) (Homo sapiens, UniProt Q9H7Z6); test: MALDI-TOF MS enzymatic assay of MOF-catalyzed acetylation of histone peptides; assay type: biochemical; conditions: 100 µM peptide, 300 µM AcCoA, pH 8.0, 37 °C; for acetylation (conversion to acetylated peptide) by MOF: after 3 h, 2 µM MOF, 50 mM Hepes, 0.1 mM EDTA, 1 mM DTT, MALDI-TOF MS
T1 construct: Human MOF catalytic domain (residues 125–458 in pET19b); His-tag; made in house; host or cells: E. coli BL21(DE3)
T1 sequence (Q9H7Z6 125-458): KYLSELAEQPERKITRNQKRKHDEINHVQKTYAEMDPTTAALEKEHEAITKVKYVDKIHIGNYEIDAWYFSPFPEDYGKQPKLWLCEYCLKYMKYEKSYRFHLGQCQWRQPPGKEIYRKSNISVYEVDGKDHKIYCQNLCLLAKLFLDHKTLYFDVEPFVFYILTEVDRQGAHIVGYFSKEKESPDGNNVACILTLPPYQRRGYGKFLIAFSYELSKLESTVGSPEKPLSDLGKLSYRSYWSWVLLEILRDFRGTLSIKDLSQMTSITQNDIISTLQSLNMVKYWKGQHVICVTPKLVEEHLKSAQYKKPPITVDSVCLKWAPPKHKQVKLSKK
Method: MALDI-TOF MS enzymatic assays were carried out to investigate KAT-catalyzed acetylation of synthetic histone peptides. The enzymatic activity of the recombinantly expressed human KATs was measured at different time points (2 µM KAT enzyme, 100 µM histone peptide, 300 µM AcCoA, buffer: 50 mM Hepes, 0.1 mM EDTA, 1 mM DTT, pH = 8.0, 37 °C, hereafter used as standard conditions) (Fig. 3b,c). […] It is noteworthy that diacetylation of histone peptides was not detected under our assay conditions, due to preacetylation of the secondary site on H3. […] As further control, H4 and H3 peptides containing stereochemically inverted D-lysine were synthesized.
The KAT enzymatic activity towards histone peptides was measured at different time points under standard conditions (2 µM KAT enzyme, 100 µM peptide, 300 µM AcCoA) in the reaction buffer (50 mM HEPES, 0.1 mM EDTA, 1 mM DTT, pH = 8.0). The reactions were carried out in a final volume of 50 µL and shaken up in a Thermomixer C at 750 rpm, at 37 °C. The reactions were quenched by the addition of TFA 10% in MilliQ water at different time points. All reactions were aliquoted and mixed 1:2 with a solution of α-Cyano-4-hydroxycinnamic acid (CHCCA) in 1:1 MQ and ACN (0.1% TFA) and loaded onto an MTP 384 polished steel target to be analyzed by a UltrafleXtreme-II tandem mass spectrometer (Bruker, Billerica, MA, USA).

MOF catalytic domain = target: T2, MOF catalytic domain (Homo sapiens, UniProt Q9H7Z6); test: MALDI-TOF MS kinetics assay, MOF; assay type: biochemical; conditions: for kcat^app / Km: MOF catalytic domain 570 nM (2 µM for unnatural analogs), peptide 1,050–0 µM, pH 7.4, 37 °C, MALDI-TOF MS, duplicates, value ± SD, SD; for kcat^app: AcCoA 100 µM (saturating), 50 mM HEPES, 0.1 mM EDTA, 0.01% TRITON-X; for Km: AcCoA 100 µM, read-out: Km^app; for kcat^app/Km^app: same kinetics conditions
T2 construct: Human MOF catalytic domain (residues 125–458 in pET19b); His-tag; made in house; host or cells: E. coli BL21(DE3)
T2 sequence (Q9H7Z6 125-458): T1 sequence (Q9H7Z6 125-458)
Excerpt: Kinetic analysis of bi-substrate enzymes, such as KATs, is reckoned to be challenging and dependent on many factors. Firstly, given the nature of these enzymes, the binding of one of the two substrates directly influences the binding of the other (with a direct effect on the Michaelis–Menten parameter Km). […] Therefore, to obtain data that would allow us to directly compare the catalytic properties of the selected KATs towards our selection of histone peptides bearing lysine analogs with longer side chains, two strategies to standardize our kinetic evaluation were taken: i) all the experiments were carried out with the same saturating concentrations of AcCoA and ii) only KATs catalytic domains were employed in the study. […] In contrast, kcat values decreased substantially with an increase of the side chain length, both in the K14 and K9 peptide series, and for both PCAF and GCN5 (Table 1).
Histone peptides kinetics evaluation was carried out with a MALDI-TOF MS assay under steady-state conditions[57],[58]. Histone peptides (1,050–0 µM) were incubated with AcCoA (100 µM) and the reactions were started by the addition of the enzyme (MOF 570 nM, PCAF and GCN5 50 nM) in a final volume of 20 µL in kinetic buffer (50 mM HEPES, 0.1 mM EDTA, 0.01% TRITON-X, pH = 7.4). For histone peptides bearing unnatural lysine analogs, higher concentration of enzymes was used (MOF, PCAF and GCN5 2 µM). […] AcCoA stock solutions in milli-Q water were calibrated with a NanoDrop 2000 spectrophotometer (Thermo Scientific, Waltham, MA, USA), employing the characteristic molar extinction coefficient ε260nm = 16,400 M^−1 cm^−1. Reactions were incubated at 37 °C, shaken at 750 rpm and quenched with TFA 10% in milli-Q water at different time points, within linear production of acetylated peptides extrapolated from time-course plots. All reactions were aliquoted and mixed 1:2 with a solution of α-cyano-4-hydroxycinnamic acid (CHCCA) in 1:1 MQ and ACN (0.1% TFA) and loaded onto MTP 384 polished steel target to be analyzed by UltrafleXtreme-II tandem mass spectrometer (Bruker). The amount of acetylated peptide was calculated by integration of the product peak area and divided it by the amount of unacetylated peptide, taking in account all the ionic species, at any concentration points using the FlexAnalysis software. Kinetic values were extrapolated by fitting V0 values (µM of produced peptide per minutes) and histone peptide concentrations to the Michaelis–Menten equation using the GraphPad Prism 5 software. Kinetic experiments were carried out in duplicates and final values are reported as value ± SD.

Sequence | time to full acetylation by MOF (MOF (KAT8); standard conditions: 2 µM MOF) [min] | kcat^app (MOF catalytic domain) [min⁻¹] | Km (MOF catalytic domain) [µM] | kcat^app/Km^app (MOF catalytic domain; MOF) [mM⁻¹ min⁻¹] | acetylation (conversion to acetylated peptide) by MOF (MOF (KAT8)) [%] | Km lower than that of H4hK16 (MOF catalytic domain; MOF)
GGA K16 RHRKVLRDNIQ [H4K16, reference compound] | 30 | 23.10 ± 1.0 | 593 ± 86 | 38.9 | – | –
GGA h2K16 RHRKVLRDNIQ [H4h2K16, 15-mer histone H4 peptide with h2K at position 16] | – | 0.06 ± 0.01 | 82.2 ± 15 | 0.7 | 90 | fourfold lower
GGA hK 16 RHRKVLRDNIQ [H4hK16, 15-mer histone H4 peptide with hLys at position 16] | – | 0.27 ± 0.1 | 344 ± 99 | 0.8 | 95 | –
